PubChem BioAssay (NCI)
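A five-concentration, 48-hour dose response in 96-well plates underlies each endpoint, interpolated linearly between surrounding concentrations. TGI: total growth inhibition.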

Experiments:
Experiment in all cases: inhibition of tumour cell growth, NCI panel, 48 h
[1] = test system: RXF 393 renal
[2] = test system: CAKI-1 renal
[3] = test system: SF-539 CNS
[4] = test system: U251 CNS
[5] = test system: HCT-116 colon
[6] = test system: NCI/ADR-RES ovarian
[7] = test system: SK-MEL-28 melanoma
[8] = test system: SNB-75 CNS
[9] = test system: HOP-62 NSCLC
[10] = test system: SK-MEL-5 melanoma
[11] = test system: UACC-62 melanoma
[12] = test system: PC-3 prostate
[13] = test system: KM12 colon
[14] = test system: DU-145 prostate
[15] = test system: SF-295 CNS
[16] = test system: LOX IMVI melanoma
[17] = test system: CCRF-CEM leukemia
[18] = test system: ACHN renal
[19] = test system: SW-620 colon
[20] = test system: SF-268 CNS
[21] = test system: OVCAR-4 ovarian
[22] = test system: IGROV1 ovarian
[23] = test system: A549 NSCLC
[24] = test system: 786-0 renal
[25] = test system: MDA-MB-435
[26] = test system: MOLT-4 leukemia
[27] = test system: MDA-N
[28] = test system: OVCAR-3 ovarian
[29] = test system: T-47D breast
[30] = test system: SK-MEL-2 melanoma
[31] = test system: COLO 205 colon
[32] = test system: M14 melanoma
[33] = test system: UACC-257 melanoma
[34] = test system: EKVX NSCLC
[35] = test system: SNB-19 CNS
[36] = test system: K-562 leukemia
[37] = test system: BT-549 breast
[38] = test system: HOP-92 NSCLC
[39] = test system: SK-OV-3 ovarian
[40] = test system: MDA-MB-231 breast
[41] = test system: OVCAR-5 ovarian
[42] = test system: HL-60(TB) leukemia
[43] = test system: NCI-H226 lung
[44] = test system: NCI-H522 lung
[45] = test system: OVCAR-8 ovarian
[46] = test system: RPMI-8226 leukemia
[47] = test system: SN12C renal
[48] = test system: UO-31 renal
[49] = test system: TK-10 renal
[50] = test system: NCI-H23 lung
[51] = test system: HT29 colon
[52] = test system: HCT-15 colon
[53] = test system: HS 578T breast
[54] = test system: NCI-H460 lung
[55] = test system: MCF7 breast
[56] = test system: HCC-2998 colon
[57] = test system: MALME-3M melanoma
[58] = test system: A498 renal

## O=C1c2ccccc2C(=Nc2ccc3ccccc3c2)C1(C1=C(c2ccccc2)C(=Nc2ccc3ccccc3c2)c2ccccc21)c1ccccc1 (stereo not given)
[1]
  TGI: > 100 µM
[2]
  TGI: > 100 µM
[3]
  TGI: > 100 µM
[4]
  TGI: > 100 µM
[5]
  TGI: > 100 µM
[6]
  TGI: > 100 µM
[7]
  TGI: > 100 µM
[8]
  TGI: > 70.4 µM
[9]
  TGI: > 100 µM
[10]
  TGI: 7.47 µM
[11]
  TGI: > 53.5 µM
[12]
  TGI: > 100 µM
[13]
  TGI: > 42.6 µM
[14]
  TGI: > 100 µM
[15]
  TGI: > 100 µM
[16]
  TGI: > 100 µM
[17]
  TGI: > 100 µM
[18]
  TGI: 15 µM
[19]
  TGI: > 100 µM
[20]
  TGI: > 100 µM
[21]
  TGI: > 100 µM
[22]
  TGI: > 100 µM
[23]
  TGI: > 100 µM
[24]
  TGI: > 100 µM
[25]
  TGI: > 87.3 µM
[26]
  TGI: 7.81 µM
[27]
  TGI: > 59.1 µM
[28]
  TGI: > 100 µM
[29]
  TGI: > 100 µM
[30]
  TGI: > 69.5 µM
[31]
  TGI: > 100 µM
[32]
  TGI: > 86.8 µM
[33]
  TGI: > 100 µM
[34]
  TGI: > 100 µM
[35]
  TGI: > 100 µM
[36]
  TGI: > 43.5 µM
[37]
  TGI: 73.3 µM
[38]
  TGI: > 100 µM
[39]
  TGI: > 100 µM
[40]
  TGI: > 100 µM
[41]
  TGI: > 100 µM
[42]
  TGI: > 29 µM
[43]
  TGI: > 44.4 µM
[44]
  TGI: > 100 µM
[45]
  TGI: > 94.1 µM
[46]
  TGI: 18.2 µM
[47]
  TGI: > 100 µM
[48]
  TGI: 37 µM
[49]
  TGI: > 100 µM
[50]
  TGI: > 31.3 µM
[51]
  TGI: > 100 µM
[52]
  TGI: > 23.8 µM
[53]
  TGI: > 100 µM
[54]
  TGI: > 100 µM
[55]
  TGI: > 65.6 µM
[56]
  TGI: > 63.4 µM

## Cc1cc(-n2c(/C=C/c3ccc(Cl)cc3)nc3cc(Cl)ccc3c2=O)on1
[2]
  TGI: > 50 µM
[3]
  TGI: > 50 µM
[4]
  TGI: 16.4 µM
[5]
  TGI: 29.6 µM
[6]
  TGI: 39 µM
[7]
  TGI: > 50 µM
[9]
  TGI: 18.3 µM
[10]
  TGI: > 50 µM
[11]
  TGI: > 50 µM
[12]
  TGI: > 50 µM
[13]
  TGI: > 50 µM
[57]
  TGI: > 50 µM
[14]
  TGI: > 50 µM
[15]
  TGI: > 50 µM
[16]
  TGI: > 50 µM
[17]
  TGI: > 50 µM
[18]
  TGI: 24.1 µM
[19]
  TGI: > 50 µM
[20]
  TGI: > 50 µM
[21]
  TGI: 4.05 µM
[22]
  TGI: > 50 µM
[23]
  TGI: > 50 µM
[24]
  TGI: 5.19 µM
[25]
  TGI: > 50 µM
[26]
  TGI: > 50 µM
[27]
  TGI: > 50 µM
[28]
  TGI: 30.9 µM
[29]
  TGI: > 50 µM
[31]
  TGI: > 50 µM
[32]
  TGI: 32.9 µM
[33]
  TGI: > 50 µM
[34]
  TGI: > 50 µM
[35]
  TGI: 26.6 µM
[36]
  TGI: > 50 µM
[37]
  TGI: > 50 µM
[38]
  TGI: > 50 µM
[39]
  TGI: 42.3 µM
[40]
  TGI: 42.4 µM
[41]
  TGI: > 50 µM
[42]
  TGI: > 50 µM
[43]
  TGI: 33.2 µM
[44]
  TGI: > 50 µM
[45]
  TGI: 47.7 µM
[47]
  TGI: > 50 µM
[48]
  TGI: 19.7 µM
[49]
  TGI: > 50 µM
[50]
  TGI: > 50 µM
[51]
  TGI: > 50 µM
[52]
  TGI: > 50 µM
[53]
  TGI: 31.4 µM
[54]
  TGI: 22 µM
[55]
  TGI: > 50 µM
[58]
  TGI: 11.5 µM
[56]
  TGI: > 50 µM
